The values below are quoted from earlier work in patent US20060257475A1, “Stable Sertraline Hydrochloride Formulation and Method” (Boehringer Ingelheim International GmbH, priority 2006, published 2006).

For series [1] the following is noted: reported in U.S. Pat. No. 5,248,699.
For series [2] the following is noted: reported in U.S. Pat. No. 5,734,083.

As to `CN[C@H]1CC[C@@H](c2ccc(Cl)c(Cl)c2)c2ccccc21` [Form I, (1S-cis)-4-(3,4-Dichlorophenyl)-1,2,3,4-tetrahydro-N-methyl-1-napththalenamine], the “Stability among Forms I to V” value in series [1] is recorded as “greatest stability of these five forms”. Further, in series [1] (room temperature), the “Thermodynamic stability relative to other crystalline forms” value is “more thermodynamically stable than Forms II, III, IV, and V”. Besides, the Solubility entry in series [2] is on record as “extremely insoluble”.
